The source of these data is US20090156575A1, “NOVEL DIAZASPIROALKANES AND THEIR USE FOR TREATMENT OF CCR8 MEDIATED DISEASES” (priority 2005, published 2009).

A word on the IC50: it is the midpoint of a concentration-inhibition curve.

Counter-ions that a name gives are not always drawn.

The first assay deals with T1, human recombinant chemokine CCR8 receptor (Homo sapiens, UniProt P51685).
T1 construct: purchased Euroscreen ES-136-M; host or cells: CHO-K1 cells (transfected), membrane preparation
T1 sequence (P51685 whole entry): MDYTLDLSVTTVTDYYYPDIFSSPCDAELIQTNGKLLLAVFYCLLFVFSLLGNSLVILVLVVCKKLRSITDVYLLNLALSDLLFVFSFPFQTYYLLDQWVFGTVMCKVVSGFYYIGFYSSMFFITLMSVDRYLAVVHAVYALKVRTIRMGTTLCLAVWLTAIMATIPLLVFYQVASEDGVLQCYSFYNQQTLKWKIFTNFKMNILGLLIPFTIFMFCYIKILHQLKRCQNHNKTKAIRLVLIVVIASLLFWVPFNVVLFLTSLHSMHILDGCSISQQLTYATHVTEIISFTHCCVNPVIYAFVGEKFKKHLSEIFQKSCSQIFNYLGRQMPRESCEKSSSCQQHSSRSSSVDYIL
As to the kind of experiment: CCL1 SPA binding assay. To be noted: IC50 (nM), membranes from CHO-K1 cells transfected with human CCR8; 125I CCL1 displacement, SPA beads. How it is done:
Membranes from CHO-K1 cells transfected with human recombinant chemokine CCR8 receptor (ES-136-M) were purchased from Euroscreen. Membrane preparations are stored at −70 C in 7.5 mM Tris-Cl pH 7.5, 12.5 mM MgCl2, 0.3 mM EDTA, 1 mM EGTA, 250 mM sucrose until used.
The CCR8 membranes (50.6 mg/ml) were preincubated with Wheat Germ Agglutinin SPA beads (4.05 mg/ml) in assay buffer (50 mM HEPES, 1 mM CaCl2×2H2O, 5 mM MgCl2×6H2O, 75 mM NaCl, 0.1% BSA) at pH=7.4 for 2 hours on ice. A […] dose-response curve (final concentrations 50 μM, 16.7 μM, 5.6 μM, 1.9 μM, 0.62 μM, 0.21 μM, 0.069 μM, 0.023 μM) was prepared by diluting compounds by serial dilution 1:3 in DMSO. In the screening plate (Polystyrene NBS plates, Costar Corning 3604) 1 μl from the DMSO solutions of compounds was transferred into each well. 1 μl of DMSO was added to the blank control wells and 1 μl unlabeled CCL1 (300 nM) was added to background control wells. 50 μl of the SPA bead-membrane mixture was added into each well. Finally, 50 μl ([…]) ^125I CCL1 (2000 Ci/mM) was added to each well. Plates were then incubated at RT with shaking (700 rpm) for 90 minutes followed by 30 minutes at RT without shaking. The plate was read in a Wallac MicroBeta counter for 2 minutes/well.
`CC1(C)Cc2c(CN3CCC4(CC3)CCN(C(=O)c3ccc(N)cn3)CC4)cccc2O1` [Example 86, 6-({9-[(2,2-dimethyl-2,3-dihydro-1-benzofuran-4-yl)methyl]-3,9-diazaspiro[5.5]undec-3-yl}carbonyl)pyridin-3-amine Trifluoroacetate]: the half-maximal inhibitory concentration (IC50) was determined as 8 nM.

The assay is the same for the next values; noted with them: membranes from CHO-K1 cells transfected with human CCR8; 125I CCL1 displacement, SPA beads; read-out: IC50.
As for `CC1(C)Cc2cccc(CN3CCC4(CC3)CCN(C(=O)c3ccncc3)CC4)c2O1` [Example 1, 3-[(2,2-dimethyl-2,3-dihydro-1-benzofuran-7-yl)methyl]-9-isonicotinoyl-3,9-diazaspiro[5.5]undecane Trifluoroacetate], the IC50 was 12 nM. On the same count and under the same terms, under `COC(=O)Cc1ccccc1C(=O)N1CCC2(CCN(Cc3cccc4c3OC(C)(C)C4)CC2)CC1` [Example 5, Methyl [2-({9-[(2,2-dimethyl-2,3-dihydro-1-benzofuran-7-yl)methyl]-3,9-diazaspiro[5.5]undec-3-yl}carbonyl)phenyl]acetate] stands 9 nM; under `CC1(C)Cc2cccc(CN3CCC4(CC3)CCN(C(=O)c3ccccc3CC(=O)N3CCC[C@@H]3C(N)=O)CC4)c2O1` [Example 18, 1-{[2-({9-[(2,2-dimethyl-2,3-dihydro-1-benzofuran-7-yl)methyl]-3,9-diazaspiro[5.5]undec-3-yl}carbonyl)phenyl]acetyl}-D-prolinamide], 57 nM; under `CC1(C)Cc2cccc(CN3CCC4(CC3)CCN(C(=O)c3ccno3)CC4)c2O1` [Example 31, 3-[(2,2-dimethyl-2,3-dihydro-1-benzofuran-7-yl)methyl]-9-(isoxazol-5-ylcarbonyl)-3,9-diazaspiro[5.5]undecane Trifluoroacetate], 10 nM.

In the case of `CC1(C)Cc2cccc(CN3CCC4(CC3)CCN(C(=O)c3ccccc3NC(=O)C3CCCO3)CC4)c2O1` (stereo not shown) [Example 49, N-[2-({9-[(2,2-dimethyl-2,3-dihydro-1-benzofuran-7-yl)methyl]-3,9-diazaspiro[5.5]undec-3-yl}carbonyl)phenyl]tetrahydrofuran-2-carboxamide], the IC50 was determined as 38 nM.

On to `CC1(C)Cc2cccc(CN3CCC4(CC3)CCN(C(=O)c3cccc5c3NC(=O)C5=O)CC4)c2O1` [Example 63, 7-({9-[(2,2-dimethyl-2,3-dihydro-1-benzofuran-7-yl)methyl]-3,9-diazaspiro[5.5]undec-3-yl}carbonyl)-1H-indole-2,3-dione Trifluoroacetate], for which the IC50 turned out to be 143 nM.

Take `CC1(C)Cc2cccc(CN3CCC4(CC3)CCN(C(=O)c3ccc5cc[nH]c5c3)CC4)c2O1` [Example 68, 3-[(2,2-dimethyl-2,3-dihydro-1-benzofuran-7-yl)methyl]-9-(1H-indol-6-ylcarbonyl)-3,9-diazaspiro[5.5]undecane Acetate]: the IC50 is 8 nM. The same measure, in the same setting: the figure for `CC1(C)Oc2cccc(CN3CCC4(CC3)CCN(C(=O)c3ncccc3N)CC4)c2O1` [Example 92, 2-({9-[(2,2-dimethyl-1,3-benzodioxol-4-yl)methyl]-3,9-diazaspiro[5.5]undec-3-yl}carbonyl)pyridin-3-amine] is 23 nM. On the same count and under the same terms, the figure for `CC1(C)COc2c(CN3CCC4(CC3)CCN(C(=O)c3ccncc3)CC4)cccc2O1` [Example 110, 3-[(2,2-dimethyl-2,3-dihydro-1,4-benzodioxin-5-yl)methyl]-9-isonicotinoyl-3,9-diazaspiro[5.5]undecane Trifluoroacetate] is 53 nM. For the compound `CC1(C)Cc2cccc(CN3CCC4(CC3)CCN(C(=O)CCc3nc(-c5ccccn5)no3)CC4)c2O1` [Example 111, 3-[(2,2-dimethyl-2,3-dihydro-1-benzofuran-7-yl)methyl]-9-[3-(3-pyridin-2-yl-1,2,4-oxadiazol-5-yl)propanoyl]-3,9-diazaspiro[5.5]undecane], the IC50 was determined as 104 nM. On to `CC1(C)Cc2c(CN3CCC4(CC3)CCN(C(=O)c3ccnc(N)n3)CC4)cccc2O1` [Example 124, 4-({9-[(2,2-dimethyl-2,3-dihydro-1-benzofuran-4-yl)methyl]-3,9-diazaspiro[5.5]undec-3-yl}carbonyl)pyrimidin-2-amine], for which the IC50 was 12 nM. The same measure, in the same setting: under `CC1(C)Oc2cccc(CN3CCC4(CC3)CCN(C(=O)c3ccc(N)[nH]c3=O)CC4)c2O1` [Example 133, 6-amino-3-({9-[(2,2-dimethyl-1,3-benzodioxol-4-yl)methyl]-3,9-diazaspiro[5.5]undec-3-yl}carbonyl)pyridin-2(1H)-one] stands 84 nM; under `CC1(C)C=Cc2cccc(CN3CCC4(CC3)CN(C(=O)c3ccncc3)C4)c2O1` [Example 139, 7-[(2,2-dimethyl-2H-chromen-8-yl)methyl]-2-isonicotinoyl-2,7-diazaspiro[3.5]nonane], 70 nM; under `CC1(C)COc2cccc(CN3CCC4(CC3)CCN(C(=O)c3ccncc3CC(N)=O)CC4)c2O1` [Example 143, 2-[4-({9-[(3,3-dimethyl-2,3-dihydro-1,4-benzodioxin-5-yl)methyl]-3,9-diazaspiro[5.5]undec-3-yl}carbonyl)pyridin-3-yl]acetamide Ditrifluoroacetate], 32 nM. Same read-out and setting: under `CC1(C)Cc2c(CN3CCC4(CC3)CN(C(=O)c3ccnc(N)n3)C4)cccc2O1` [Example 157, 4-({7-[(2,2-dimethyl-2,3-dihydro-1-benzofuran-4-yl)methyl]-2,7-diazaspiro[3.5]non-2-yl}carbonyl)pyrimidin-2-amine] stands 50 nM; under `CC1(C)Cc2c(CN3CCC4(CC3)CCN(C(=O)c3ccncc3CC(N)=O)CC4)cccc2O1` [Example 159, 2-[4-({9-[(2,2-dimethyl-2,3-dihydro-1-benzofuran-4-yl)methyl]-3,9-diazaspiro[5.5]undec-3-yl}carbonyl)pyridin-3-yl]acetamide], 87 nM. Regarding `CC1(C)COc2c(CN3CCC4(CC3)CCN(C(=O)c3ccc(N)cn3)CC4)cccc2O1` [Example 173, 6-({9-[(2,2-dimethyl-2,3-dihydro-1,4-benzodioxin-5-yl)methyl]-3,9-diazaspiro[5.5]undec-3-yl}carbonyl)pyridin-3-amine Trifluoroacetate], the IC50 worked out at 21 nM. On the same count and under the same terms, under `COC(=O)Cc1ccccc1C(=O)N1CCC2(CCN(Cc3cccc4c3OC(C)(C)C4)CC2)CC1` [Example 181, Methyl [2-({9-[(2,2-dimethyl-2,3-dihydro-1-benzofuran-7-yl)methyl]-3,9-diazaspiro[5.5]undec-3-yl}carbonyl)phenyl]acetate] stands 72 nM.
